Experimental data taken from article PMC11480411, “Mucosal sugars delineate pyrazine vs pyrazinone autoinducer signaling in Klebsiella oxytoca” (Nature Communications, 2024).
Where “and” joins values, the source holds several entries; their conditions need not be identical. Identical values can stand only once. Values belong to the compound of their own block, whether it stands above or below them.

Legend:
[1] = system: leup operon (leupeptin BGC) promoter in K. oxytoca ATCC 8724; assay: GFP-based transcriptional reporter for the leup operon; format: cell-based, Klebsiella oxytoca; conditions: carbohydrate screen, M9 + casamino acid + 0.4% indicated sugar, 30 °C, 24 h; for GFP fluorescence, GFP Strain + Media: leup GFP reporter strain; for GFP fluorescence, WT + Media: wildtype K. oxytoca without reporter (background)
Description: We previously examined a panel of 84 clinical K. oxytoca isolates (including recently renamed Klebsiella michiganensis isolates) for the presence of either the leup operon or npsB, an NRPS of the tilimycin/tilivalline gene cluster. […] While the roles of tilivalline and tilimycin in hemorrhagic colitis are well studied[8],[9], the operon for leupeptin biosynthesis is “silent” in K. oxytoca under typical laboratory culture conditions (i.e., leupeptin production is undetectable). Therefore, our study commenced by exploring growth conditions required to trigger leupeptin biosynthesis in K. oxytoca. To achieve this, we generated a green fluorescent protein (GFP)-based reporter system to monitor leup transcription in K. oxytoca ATCC 8724 (recently renamed as Klebsiella michiganensis (ATCC 8724), Fig. 1a). We utilized λ-red recombineering techniques[38] to replace the first biosynthetic gene (leupA) of the leupeptin BGC with a GFP-spectinomycin resistance cassette. […] Consequently, conditions that elicit transcription of the leupeptin BGC can be monitored by GFP fluorescence intensity.
5 mL of the leupeptin reporter strain was cultured aerobically in 10 g/L of LB (Becton Dickinson), yeast extract, GAM (HiMedia Laboratories), horse liver extract (HiMedia Laboratories), malt extract (VWR), meat extract (HiMedia Laboratories), YPD (Dot Scienticifc), brain heart infusion (Becton Dickinson), porcine mucin (Sigma-Aldrich, M1778), clostridial (Becton Dickinson), TSB (VWR), or casamino acid supplemented (5 g/L, VWR) M9 minimal salts (MP Biomedicals) at 30 °C for 24 h at 250 rpm. Cultures were lysed via sonication, centrifuged, and 150 µL of the supernatants were aliquoted into black well clear bottom 96 well plates. GFP fluorescence measurements were performed on a BioTek Synergy H1 plate reader with an excitation wavelength of 488 nm and an emission wavelength of 525 nm. For the carbohydrate screen, the leupeptin reporter strain was cultured in M9 minimal medium (MPbio) supplemented with casamino acid (5 g/L, VWR) and 0.4% indicated sugar aerobically at 30 °C for 24 h at 250 rpm.

HRH2 = target: T1, HRH2 (Homo sapiens, UniProt P25021); assay: PRESTO-Tango GPCR screen and dose-response; format: cell-based; conditions: replicate wells
T1 construct: expressed in transfected cells; host or cells: HTLA cells (HEK293 line stably expressing β-arrestin-TEV and tTA-Luciferase)
T1 sequence (P25021 whole entry): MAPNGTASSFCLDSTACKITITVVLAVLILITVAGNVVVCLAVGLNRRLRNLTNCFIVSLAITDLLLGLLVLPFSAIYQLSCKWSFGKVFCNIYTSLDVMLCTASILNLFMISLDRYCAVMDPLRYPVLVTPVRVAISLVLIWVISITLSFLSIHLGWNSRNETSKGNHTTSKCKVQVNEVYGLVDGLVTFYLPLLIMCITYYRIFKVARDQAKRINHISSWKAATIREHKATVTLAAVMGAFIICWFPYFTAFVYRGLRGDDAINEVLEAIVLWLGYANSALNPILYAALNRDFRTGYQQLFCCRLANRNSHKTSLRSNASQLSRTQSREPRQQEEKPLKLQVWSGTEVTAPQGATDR
Protocol: (§1) The PRESTO-Tango analyses were performed as previously published. Briefly, HTLA cells, a HEK293 cell line that stably expresses β-arrestin-TEV and tTA-Luciferase (a kind gift from Gilad Barnea, Brown University), were plated in 96-well tissue culture plates (Eppendorf) in DMEM containing 10% FBS and 1% Penicillin/Streptomycin. One day after plating (after reaching approximately 90% confluence), 200 ng per well GPCR-Tango plasmids[37] in 20 μL DMEM were individually mixed with 400 ng polyethylenimine (Polysciences) in an equal volume of DMEM and incubated for 20 min at room temperature before adding the transfection mixture to the HTLA cells. 16-24 h after transfection, medium was replaced with 180 μL fresh DMEM containing 1% Penicillin/Streptomycin and 10 mM HEPES and 20 μL of 3 or 3-Homo to reach a final concentration of 100 μM. Supernatants were aspirated 20 h after stimulation and 50 μl per well of Bright-Glo solution (Promega) diluted 20-fold with PBS containing 20 mM HEPES was added into each well. After 15 min incubation at room temperature, luminescence was quantified using a Spectramax i3x microplate reader (Molecular Devices). Activation fold for each sample was calculated by dividing relative luminescence units (RLU) for each condition by RLUs from PBS control. Dose response curves of each chemical were performed in a similar way with varying the ligand concentration from 10^−4 M to 10^−15 M.

[2] = target: T2, histamine receptor H4 (HRH4) (Homo sapiens, UniProt Q9H3N8); assay: PRESTO-Tango GPCR screen and dose-response; format: cell-based; conditions: replicate wells
T2 construct: expressed in transfected cells; host or cells: HTLA cells (HEK293 line stably expressing β-arrestin-TEV and tTA-Luciferase)
Protocol: as §1

HRH1 = target: T3, HRH1 (Homo sapiens, UniProt P35367); assay: PRESTO-Tango GPCR screen and dose-response; format: cell-based; conditions: replicate wells
T3 construct: expressed in transfected cells; host or cells: HTLA cells (HEK293 line stably expressing β-arrestin-TEV and tTA-Luciferase)
T3 sequence (P35367 whole entry): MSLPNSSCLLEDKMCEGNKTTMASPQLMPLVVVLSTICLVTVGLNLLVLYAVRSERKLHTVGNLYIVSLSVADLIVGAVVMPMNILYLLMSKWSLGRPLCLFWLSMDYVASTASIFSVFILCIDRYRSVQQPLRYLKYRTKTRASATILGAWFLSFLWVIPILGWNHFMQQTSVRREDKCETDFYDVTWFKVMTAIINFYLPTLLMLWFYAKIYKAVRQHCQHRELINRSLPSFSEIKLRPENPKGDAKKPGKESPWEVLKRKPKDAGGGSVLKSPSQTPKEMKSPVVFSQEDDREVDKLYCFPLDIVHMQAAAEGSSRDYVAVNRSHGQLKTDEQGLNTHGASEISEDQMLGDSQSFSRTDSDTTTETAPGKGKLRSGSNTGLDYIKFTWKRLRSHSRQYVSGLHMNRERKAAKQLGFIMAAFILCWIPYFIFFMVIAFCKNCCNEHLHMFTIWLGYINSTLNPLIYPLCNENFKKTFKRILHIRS
Protocol: as §1

SMILES: O=C[C@H](O)[C@@H](O)[C@@H](O)[C@H](O)CO [Galactose]
- GFP fluorescence, GFP Strain + Media [1]: 9159 RFU
- GFP fluorescence, WT + Media [1]: 6849 RFU

SMILES: O=C[C@H](O)[C@@H](O)[C@H](O)CO [Xylose]
- GFP fluorescence, GFP Strain + Media [1]: 9892 RFU
- GFP fluorescence, WT + Media [1]: 5418 RFU

- HRH2 dose-response raw reporter signal (Fig. 5b source data) (HRH2; Log(10)Conc (M) -4): 3877 and 3933 and 3726
- HRH2 dose-response raw reporter signal (Fig. 5b source data) (HRH2; Log(10)Conc (M) -5): 699 and 758 and 693
- HRH2 dose-response raw reporter signal (Fig. 5b source data) (HRH2; Log(10)Conc (M) -6): 144 and 156 and 139
- HRH2 dose-response raw reporter signal (Fig. 5b source data) (HRH2; Log(10)Conc (M) -7): 56 and 88 (2×)
- HRH2 dose-response raw reporter signal (Fig. 5b source data) (HRH2; Log(10)Conc (M) -8): 94 and 91 and 50
- HRH2 dose-response raw reporter signal (Fig. 5b source data) (HRH2; Log(10)Conc (M) -9): 62 and 56 and 65
- HRH2 dose-response raw reporter signal (Fig. 5b source data) (HRH2; Log(10)Conc (M) -10): 59 and 68 and 77
- HRH2 dose-response raw reporter signal (Fig. 5b source data) (HRH2; Log(10)Conc (M) -11): 53 and 68 and 38
- HRH2 dose-response raw reporter signal (Fig. 5b source data) (HRH2; Log(10)Conc (M) -12): 50 and 56 and 88
- HRH2 dose-response raw reporter signal (Fig. 5b source data) (HRH2; Log(10)Conc (M) -13): 44 and 77 and 100
- HRH2 dose-response raw reporter signal (Fig. 5b source data) (HRH2; Log(10)Conc (M) -14): 44 and 83 and 77
- HRH2 dose-response raw reporter signal (Fig. 5b source data) (HRH2; Log(10)Conc (M) -15): 32 and 47 and 38
- HRH4 dose-response raw reporter signal (Fig. 5b source data) ([2]; Log(10)Conc (M) -5): 20161 and 21099
- HRH4 dose-response raw reporter signal (Fig. 5b source data) ([2]; Log(10)Conc (M) -6): 15058 and 15677
- HRH4 dose-response raw reporter signal (Fig. 5b source data) ([2]; Log(10)Conc (M) -7): 3788 and 3862
- HRH4 dose-response raw reporter signal (Fig. 5b source data) ([2]; Log(10)Conc (M) -8): 887 and 1023
- HRH4 dose-response raw reporter signal (Fig. 5b source data) ([2]; Log(10)Conc (M) -9): 590 and 625
- HRH4 dose-response raw reporter signal (Fig. 5b source data) ([2]; Log(10)Conc (M) -10): 537 and 513
- HRH4 dose-response raw reporter signal (Fig. 5b source data) ([2]; Log(10)Conc (M) -11): 475
- HRH4 dose-response raw reporter signal (Fig. 5b source data) ([2]; Log(10)Conc (M) -12): 433 and 407
- HRH4 dose-response raw reporter signal (Fig. 5b source data) ([2]; Log(10)Conc (M) -13): 377 and 419
- HRH4 dose-response raw reporter signal (Fig. 5b source data) ([2]; Log(10)Conc (M) -14): 545 and 448
- HRH4 dose-response raw reporter signal (Fig. 5b source data) ([2]; Log(10)Conc (M) -15): 245
- HRH1 dose-response raw reporter signal (Fig. 5b source data) (HRH1; Log(10)Conc (M) -4): 81577 and 82137
- HRH1 dose-response raw reporter signal (Fig. 5b source data) (HRH1; Log(10)Conc (M) -5): 78216 and 78255
- HRH1 dose-response raw reporter signal (Fig. 5b source data) (HRH1; Log(10)Conc (M) -6): 75259 and 78673
- HRH1 dose-response raw reporter signal (Fig. 5b source data) (HRH1; Log(10)Conc (M) -7): 76949 and 75622
- HRH1 dose-response raw reporter signal (Fig. 5b source data) (HRH1; Log(10)Conc (M) -8): 67606 and 69585
- HRH1 dose-response raw reporter signal (Fig. 5b source data) (HRH1; Log(10)Conc (M) -9): 52047 and 52194
- HRH1 dose-response raw reporter signal (Fig. 5b source data) (HRH1; Log(10)Conc (M) -10): 45399 and 45284
- HRH1 dose-response raw reporter signal (Fig. 5b source data) (HRH1; Log(10)Conc (M) -11): 44193 and 43739
- HRH1 dose-response raw reporter signal (Fig. 5b source data) (HRH1; Log(10)Conc (M) -12): 45001 and 44441
- HRH1 dose-response raw reporter signal (Fig. 5b source data) (HRH1; Log(10)Conc (M) -13): 46307 and 47693
- HRH1 dose-response raw reporter signal (Fig. 5b source data) (HRH1; Log(10)Conc (M) -14): 46469 and 45317
- HRH1 dose-response raw reporter signal (Fig. 5b source data) (HRH1; Log(10)Conc (M) -15): 42643 and 42151
SMILES: NCCc1c[nH]cn1 [Histamine, histamine, reference compound]
